For one data set, the system named is HepG2. Put plainly: SRB cytotoxicity assay, HepG2. The settings on record: Homo sapiens. The format is cell-based. From the text:
(§1) Human hepatoma cell lines Hep3B, HepG2, HepG2/2.2.15, Huh-7 and Sk-Hep-1, human glioblastoma cell line RG-2, and human prostate cancer cell line DU145 were maintained in DMEM (HyClone Laboratories, Logan, Utah, USA). Human prostate cancer cell line LNCap was maintained in RPMI-1640 culture medium (Sigma-Aldrich, St. Louis, Mo., USA). […] Human prostate cancer cell line PC-3 was maintained in the Ham's F-12K medium (Invitrogen, Carlsbad, Calif., USA) with the same medium supplements described in the culture medium except that the fetal bovine serum concentration was reduced to 7% by volume. Cancer cells were maintained at 37° C. in a humidified incubator (Nuaire, USA) containing 5% CO2.
(§2) The SRB assay was used for measuring cancer cell viability. The cancer cells in the plate wells were rinsed with 1× PBS and treated with 1× trypsin-EDTA (Invitrogen, Carlsbad, Calif.). The culture medium was added to dilute the trypsin-EDTA. The detached cancer cells were harvested by centrifugation and suspended in the 1 ml culture medium. Ten μl of the cell suspension was dispensed into counting chambers and the cell density was determined microscopically. The cells in 198 μl suspensions were seeded onto a 96-well cell plate (Nunc, Rochester, N.Y.) at the appropriate cell density per well and incubated in the cell culture incubator overnight.
(§3) We evaluated the ant-cancer activity of the following CPT derivatives pharmaceutical compositions: • 1. TLC388 HCl, a non-water soluble CPT derivative (obtained from ScinoPharm Taiwan Ltd., Taiwan); • 2. […]
(§4) At the end of the incubation period, cells were fixed by adding 50 μl of cold 50% TCA (w/v) (Sigma, St Louis, Mo., USA) to a final concentration of 10% TCA and further incubated at 4° C. for 60 minutes. […] Bound stain in each well was solubilized with 100 μl of 10 mM trizma base (Bioshop, Burlington, ON, Canada), and the absorbance was measured using an automated plate reader (Anthos 2001, Anthos Labtec Instrument) at 540 nm.
(§5) The graph and data were analyzed by SigmaPlot 10.0 software and Microsoft Excel 2002.

Another data set deals with HepG2/2.2.15. Put plainly: SRB cytotoxicity assay, HepG2/2.2.15. The format is cell-based. The following applies: Homo sapiens.
Excerpt: as §1, §2, §3, §4, §5
Background: In SRB staining, fixed cells bind dye roughly in proportion to their protein.

For the next data set, the system named is Huh-7. Briefly: SRB cytotoxicity assay, Huh-7. Type of data set: cell-based. The following applies: Homo sapiens.
Excerpt: as §1, §2, §3, §4, §5

In the next data set the test system is Hep3B. Briefly: SRB cytotoxicity assay, Hep3B. The format is cell-based. The following applies: Homo sapiens.
Excerpt: as §1, §2, §3, §4, §5

The next data set relates to Sk-Hep-1. Put plainly: SRB cytotoxicity assay, Sk-Hep-1. The format is cell-based. The following applies: Homo sapiens, SK-HEP1.
Excerpt: as §1, §2, §3, §4, §5

Another data set deals with DU145. Briefly: SRB cytotoxicity assay, DU145. The format is cell-based. The settings on record: Homo sapiens, DU-145.
Excerpt: as §1, §2, §3, §4, §5

The subject of a further data set is LNCap. Briefly: SRB cytotoxicity assay, LNCap. Type of data set: cell-based. The settings on record: Homo sapiens.
Excerpt: as §1, §2, §3, §4, §5

A further data set deals with PC-3. Briefly: SRB cytotoxicity assay, PC-3. Type of data set: cell-based. The following applies: Homo sapiens.
Excerpt: as §1, §2, §3, §4, §5

The test system of the next data set is HCT116. Put plainly: SRB cytotoxicity assay, HCT116 (colon cancer). The following applies: Homo sapiens, HCT-116; HCT116, incubation 72 h. Type of data set: cell-based. Here is the method:
as §2, §3, §4, §5

For another data set, the system named is HT29. Briefly: SRB cytotoxicity assay, HT29 (colon cancer). Type of data set: cell-based. The settings on record: Homo sapiens, HT-29; HT29, incubation 72 h. The method, then:
as §2, §3, §4, §5

A further data set concerns RG-2. Put plainly: SRB cytotoxicity assay, RG-2 glioma cell line. Type of data set: cell-based. The following applies: Homo sapiens, RG2.
Excerpt: as §1, §2, §3, §4, §5

Data set [1] concerns erythroid Colony Forming Cells (CFCs). Briefly: Bone marrow suppression evaluation, colony assay, erythroid progenitors. Type of data set: cell-based. The settings on record: human bone marrow progenitors, methylcellulose colony assay, 14-16 days. The method, then:
(§6) An in vitro evaluation of the effect of the pharmaceutical compositions on human bone marrow cells was performed.
(§7) Protocol: Clonogenic progenitors of the erythroid (CFU-E, BFU-E), granulocyte-monocyte (CFU-GM) and multipotential lineages (CFU-GEMM) were set up in methylcellulose-based medium (R&D Systems) containing recombinant rhSCF (50 ng/mL), rhIL-3 (10 ng/mL), rhGM-CSF (10 ng/mL),and rhEpo (3 U/mL).
(§8) TLC388 HCl and Topotecan were diluted in DMSO and Lipotecan® was diluted in sterile water to provide the appropriate working stock concentrations. These working stock solutions were subsequently added to the methylcellulose-based colony assay medium described above. The colony assay mediums were set up in triplicate at 2×10^4 cells per culture medium.
(§9) The replicate culture mediums were incubated at 37° C. in 5% CO2 for 14-16 days. After this time, the resultant colonies in the culture medium were evaluated by a senior scientist in term of size and morphology.

For another data set, the system named is myeloid CFCs. Briefly: Bone marrow suppression evaluation, colony assay, myeloid progenitors. Type of data set: cell-based. The following applies: human bone marrow progenitors, methylcellulose colony assay, 14-16 days. Here is the method: as §6, §7, §8, §9
The nature of data set [2]: Aqueous solubility with mPEG2000-DSPE formulation. The format is physicochemical. The settings on record: water with mPEG2000-DSPE formulation, aqueous with cosolvent or surfactant or cyclodextrin. The method, then:
In addition, the aqueous solubility of […] increased to 10 mg/mL with mPEG2000-DSPE formulation.

The conditions of data set [3]: stated as known; cited from earlier work.

Each structure is given as a SMILES string. pIC50: −log10 of the molar value.

For orientation: pIC50 means the negative decadic logarithm of the IC50, by convention in mol/L. The low end stands for a high IC50, the high end for a low IC50. For orientation: solubility means the concentration that dissolves in the medium under given conditions. The low end stands for a poorly soluble substance, the high end for a readily soluble substance.

As for `CC[C@@]1(O)C(=O)OCc2c1cc1n(c2=O)Cc2cc3c(CN(C)C)c(O)ccc3nc2-1` [Topotecan], the pIC50 is 4.24 in the data set with HepG2 (HepG2, incubation 24 h); 5.56 with HepG2 (HepG2, incubation 48 h); 6.16 with HepG2 (HepG2, incubation 72 h); under 4.30 in the data set on HepG2/2.2.15 (HepG2/2.2.15, incubation 24 h); 4.20 in the data set with HepG2/2.2.15 (HepG2/2.2.15, incubation 48 h); 6.24 in the data set with HepG2/2.2.15 (HepG2/2.2.15, incubation 72 h). In addition, the pIC50 in the data set on Huh-7 (Huh-7, incubation 24 h) was 4.19; in the data set with Huh-7 (Huh-7, incubation 48 h), 5.30; in the data set on Huh-7 (Huh-7, incubation 72 h), 5.55; with Hep3B (incubation 24 h), under 4.30; in the data set with Hep3B (incubation 48 h) it was 4.19; with Hep3B (incubation 72 h) it was 6.70. Moreover, the pIC50 in the data set on Sk-Hep-1 (Sk-Hep-1, incubation 24 h) is 4.13; with Sk-Hep-1 (Sk-Hep-1, incubation 48 h), 4.90; in the data set with Sk-Hep-1 (Sk-Hep-1, incubation 72 h) it was 5.68; in the data set with DU145 (DU145, incubation 24 h) it was 5.65; with DU145 (DU145, incubation 48 h) it was 6.22; with DU145 (DU145, incubation 72 h) it was 6.24. In addition, the pIC50 was 4.83 in the data set on LNCap (incubation 24 h); 5.21 with LNCap (incubation 48 h); 5.59 with LNCap (incubation 72 h); 3.88 in the data set on PC-3 (PC-3, incubation 24 h); 4.74 with PC-3 (PC-3, incubation 48 h); 5.45 in the data set on PC-3 (PC-3, incubation 72 h). Further, the pIC50 is 8.10 with HCT116; 7.42 with HT29; 5.14 in the data set with RG-2 (RG-2, incubation 24 h); 5.56 in the data set on RG-2 (RG-2, incubation 48 h); 5.52 with RG-2 (RG-2, incubation 72 h); 7.93 in [1]. In the data set on myeloid CFCs, this compound gave a pIC50 of 8.06.
As for `CC[C@@]1(OC(=O)C(C)(C)ON=C2c3cc([N+](=O)[O-])cc([N+](=O)[O-])c3-c3c2cc([N+](=O)[O-])cc3[N+](=O)[O-])C(=O)OCc2c1cc1n(c2=O)Cc2cc3c(CN(C)C)c(O)ccc3nc2-1.Cl` [TLC1988 HCl, (S)-10-[(dimethylamino)methyl]-4-ethyl-9-hydroxy-4-O-[2-methyl-2-(2″,4″,5″,7″-tetranitro-9″-fluorenylideneaminooxy)propionyl]-1H-pyrano[3′,4′:6,7]indolizino[1,2-b]quinoline-3,14-(4H,12H)-dione, monohydrochloride], in [2], the solubility is 10000 µg/mL. Also, the “stability in an alkaline condition” value in [3] is given as “unstable in an alkaline condition”.

Values taken from patent US10980798B2, “Pharmaceutical compositions of hydrophobic camptothecin derivatives” (Taiwan Liposome Company, Ltd., priority 2011, dated 2021).
